# From US7585861B2, “HIV inhibiting 1,2,4-triazines” (Janssen Pharmaceutica, N.V., priority 2003, dated 2009)
# Assays:
# Type in all cases: cell-based
# mock-infected MT-4 cells [1] = assay: Test B: cytotoxicity in mock-infected MT-4 cells engineered with GFP under a constitutional promoter
# Protocol: An […] T4-cell line, MT-4, which was previously shown (Koyanagi et al., Int. J. Cancer, 36, 445-451, 1985) to be highly susceptible to and permissive for HIV infection, served as the target cell line. In these cells, engineered with GFP (and an HIV-specific promotor), ongoing HIV-infection was measured fluorometrically. Cytotoxicity is measured in the same cells, but engineered with GFP under a constitutional promoter. The infection (or inhibition thereof) of HIV infected cells and the flourescence of mock-infected cells is assessed by the fluorescent GFP signal generated by the two above mentioned cell lines.
# HIV = assay: Test A: inhibition of the HIV-induced cytopathic effect in MT-4 cells (MTT); details: Test A; MT-4 cells, MTT; pIC50 = −log IC50, dose achieving 50% protection
# Protocol: (§1) A rapid, sensitive and automated assay procedure was used for the in vitro evaluation of anti-HIV agents. An […] T4-cell line, MT-4, which was previously shown (Koyanagi et al., Int. J. Cancer, 36, 445-451, 1985) to be highly susceptible to and permissive for HIV infection, served as the target cell line. Inhibition of the HIV-induced cytopathic effect was used as the end point. The viability of both HIV- and mock-infected cells was assessed spectrophotometrically via the in situ reduction of 3-(4,5-dimethylthiazol-2-yl)-2,5-diphenyltetrazolium bromide (MTT). […] The percent protection achieved by the compound in HTV-infected cells was calculated by the following formula:
# (§2) [formula] whereby (ODT)HIV is the optical density measured with a given concentration of the test compound in HIV-infected cells; (ODC)HIV is the optical density measured for the control unteated HIV-infected cells; (ODC)MOCK is the optical density measured for the control untreated mock-infected cells; all optical density values were determined at 540 nm. […] The ratio of CC50 to IC50 was defined as the selectivity index (SI).
# mock-infected MT-4 cells [2] = assay: Test A: cytotoxicity in mock-infected MT-4 cells (MTT)
# Protocol: as §1, §2
# [3] = Test A, mock-infected MT-4 cells, MTT, 50% cytotoxic concentration (CC50 in M)
pIC50 (M) (HIV),SMILES,PCC50 (mock-infected MT-4 cells [1]),PCC50 (mock-infected MT-4 cells [2]),PCC50 (mock-infected MT-4 cells [2]; [3])
,N#CC=Cc1cc(Br)c(Nc2nnc(Cl)c(Nc3ccc(C#N)cc3)n2)c(Br)c1 (mixture of isomers) [Compound 78],5.1,,
9.0 M,Cc1cc(CCC#N)cc(C)c1Nc1nc(Nc2ccc(C#N)cc2)nnc1C [Compound 2],,<4.0,
8.7 M,Cc1cc(C#N)cc(C)c1Nc1nc(Nc2ccc(C#N)cc2)nnc1C [Compound 5],,<4.0,
7.3 M,Cc1cc(/C=C/C#N)cc(C)c1Nc1cnnc(Nc2ccc(C#N)cc2)n1 [Compound 8],,<4.0,
7.8 M,Cc1cc(CCC#N)cc(C)c1Nc1cnnc(Nc2ccc(C#N)cc2)n1 [Compound 9],,<4.0,
9.2 M,COc1cc(C)c(Nc2nc(Nc3ccc(C#N)cc3)nnc2C)c(C)c1 [Compound 11],,5.5,
8.2 M,Cc1cc(/C=C/C#N)cc(C)c1Nc1nc(Nc2ccc(C#N)cc2)nnc1C [Compound 13],,<4.0,
8.8 M,COc1cc(C)c(Nc2cnnc(Nc3ccc(C#N)cc3)n2)c(C)c1 [Compound 14],,<4.0,
8.8 M,Cc1cc(Br)cc(C)c1Nc1cnnc(Nc2ccc(C#N)cc2)n1 [Compound 15],,<4.0,
8.7 M,Cc1cc(Br)cc(C)c1Nc1nc(Nc2ccc(C#N)cc2)nnc1C [Compound 16],,4.2,
8.0 M,Cc1cc(C(C)(C)C)cc(C)c1Nc1cnnc(Nc2ccc(C#N)cc2)n1 [Compound 17],,<4.0,
8.1 M,Cc1cc(C(C)(C)C)cc(C)c1Nc1nc(Nc2ccc(C#N)cc2)nnc1C [Compound 18],,<4.0,
9.0 M,Cc1cc(/C=C\C#N)cc(C)c1Nc1nc(Nc2ccc(C#N)cc2)nnc1C [Compound 19],,4.6,
7.1 M,Cc1cc(/C=C/C(=O)N(C)C)cc(C)c1Nc1nc(Nc2ccc(C#N)cc2)nnc1C [Compound 22],,<4.6,
8.9 M,COc1cc(C)cc(C)c1Nc1nc(Nc2ccc(C#N)cc2)nnc1C [Compound 23],,6.4,
8.8 M,Cc1cc(CC#N)cc(C)c1Nc1cnnc(Nc2ccc(C#N)cc2)n1 [Compound 24],,<4.6,
8.6 M,COc1cc(OC)c(Nc2nc(Nc3ccc(C#N)cc3)nnc2C)c(OC)c1 [Compound 25],,4.4,
8.3 M,Cc1cc(C)c(Nc2nc(Nc3ccc(C#N)cc3)nnc2C)c(CC#N)c1 [Compound 27],,<4.0,
7.5 M,Cc1cc(C(=O)N(C)C)cc(C)c1Nc1nc(Nc2ccc(C#N)cc2)nnc1C [Compound 31],,<4.0,
8.6 M,COc1cc(/C=C/C#N)cc(OC)c1Nc1nc(Nc2ccc(C#N)cc2)nnc1C [Compound 33],,5.4,
8.6 M,Cc1nnc(Nc2ccc(C#N)cc2)nc1Nc1c(Cl)cc(/C=C/C#N)cc1Cl [Compound 34],,5.0,
8.2 M,CCOc1cc(C)c(Nc2nc(Nc3ccc(C#N)cc3)nnc2C)c(C)c1 [Compound 35],,<4.6,
7.0 M,CNC(=O)c1cc(C)c(Nc2cnnc(Nc3ccc(C#N)cc3)n2)c(C)c1 [Compound 37],,4.3,

pIC50 (M) (HIV),SMILES,PCC50 (mock-infected MT-4 cells [1]),PCC50 (mock-infected MT-4 cells [2]),PCC50 (mock-infected MT-4 cells [2]; [3])
8.9 M,Cc1cc(OCC#N)cc(C)c1Nc1nc(Nc2ccc(C#N)cc2)nnc1C [Compound 38],,4.7,
7.2 M,Cc1cc(/C=C/C(=O)N2CCCC2)cc(C)c1Nc1nc(Nc2ccc(C#N)cc2)nnc1C [Compound 39],,<4.0,
8.6 M,COc1cc(CCC#N)cc(OC)c1Nc1nc(Nc2ccc(C#N)cc2)nnc1C [Compound 40],,5.0,
7.6 M,Cc1cc(OCC#N)cc(C)c1Nc1cnnc(Nc2ccc(C#N)cc2)n1 [Compound 41],,<4.6,
9.1 M,CC(C#N)=Cc1cc(C)c(Nc2nc(Nc3ccc(C#N)cc3)nnc2C)c(C)c1 [Compound 42],,4.8,
8.1 M,CCOc1cc(C)c(Nc2cnnc(Nc3ccc(C#N)cc3)n2)c(C)c1 [Compound 43],,<4.6,
8.1 M,Cc1cc(/C=C/C(=O)N2CCOCC2)cc(C)c1Oc1nc(Nc2ccc(C#N)cc2)nnc1C [Compound 47],,<4.6,
,Cc1cc(/C=C/C(=O)N(C)C)cc(C)c1Oc1nc(Nc2ccc(C#N)cc2)nnc1C [Compound 50],4.7,,
,CCNC(=O)c1cc(C)c(Nc2cnnc(Nc3ccc(C#N)cc3)n2)c(C)c1 [Compound 51],5.1,,
,Cc1cc(C(=O)N(C)C)cc(C)c1Nc1cnnc(Nc2ccc(C#N)cc2)n1 [Compound 52],<4.6,,
,Cc1cc(C=CC#N)cc(C)c1Nc1nnc(Cl)c(Nc2ccc(C#N)cc2)n1 [Compound 53],4.9,,
,Cc1cc(/C=C/C#N)cc(C)c1Nc1nc(Nc2ccc(C#N)cc2)nnc1Cl [Compound 54],4.9,,
,CNC(=O)/C=C/c1cc(C)c(Oc2nc(Nc3ccc(C#N)cc3)nnc2C)c(C)c1 [Compound 56],4.8,,
,CCN(C)C(=O)/C=C/c1cc(C)c(Oc2nc(Nc3ccc(C#N)cc3)nnc2C)c(C)c1 [Compound 57],4.7,,
,COc1cc(/C=C/C#N)cc(C)c1Nc1nc(Nc2ccc(C#N)cc2)nnc1C [Compound 60],6.0,,
,C/C(=C\C#N)c1cc(Cl)c(Nc2nc(Nc3ccc(C#N)cc3)nnc2C)c(Cl)c1 [Compound 61],5.4,,
,N#Cc1ccc(Nc2cnnc(Nc3c(F)cc(I)cc3F)n2)cc1 [Compound 63],4.9,,
,COc1cc(C)c(Nc2nnc(Cl)c(Nc3ccc(C#N)cc3)n2)c(C)c1 [Compound 64],4.7,,
,Cc1cc(/C=C/C#N)cc(Cl)c1Nc1nc(Nc2ccc(C#N)cc2)nnc1C [Compound 65],5.3,,
,COc1cc(C(C)=CC#N)cc(C)c1Nc1nc(Nc2ccc(C#N)cc2)nnc1C [Compound 66],5.7,,
,COc1cc(/C(C)=C/C#N)cc(OC)c1Nc1nc(Nc2ccc(C#N)cc2)nnc1C [Compound 67],4.9,,
,COc1cc(/C(C)=C/C#N)cc(Cl)c1Nc1nc(Nc2ccc(C#N)cc2)nnc1C [Compound 68],5.2,,
,C/C(=C\C#N)c1cc(C)c(Nc2nc(Nc3ccc(C#N)cc3)nnc2C)c(Cl)c1 [Compound 69],5.7,,

SMILES,pIC50 (M) (HIV),PCC50 (mock-infected MT-4 cells [1]),PCC50 (mock-infected MT-4 cells [2]),PCC50 (mock-infected MT-4 cells [2]; [3])
Cc1cc(C)c(Nc2cnnc(Nc3ccc(C#N)cc3)n2)c(C)c1 [Compound 7],9.3 M,,,5.5
N#Cc1ccc(Nc2nncc(Nc3c(Cl)cc(C#N)cc3Cl)n2)cc1 [Compound 10],7.6 M,,,<4.5
Cc1cc(C)c(Nc2nc(Nc3ccc(C#N)cc3)nnc2C)c(C)c1 [Compound 12],8.9 M,,,
Cc1cc(CC#N)cc(C)c1Nc1nc(Nc2ccc(C#N)cc2)nnc1C [Compound 20],8.6 M,,<4.6,
Cc1cc(C)c(Nc2nnc(Cl)c(Nc3ccc(C#N)cc3)n2)c(C)c1 [Compound 45],7.6 M,,<4.6,
Cc1cc(C)c(Sc2nc(Nc3ccc(C#N)cc3)nnc2Cl)c(C)c1 [Compound 46],7.9 M,,,<4.6
